Assays:
[1] = system: Chlamydomonas pds transformants; test: Contamination test: Chlamydomonas pds transformant alone and in mixed culture, with and without flurochloridone; type: cell-based, Chlamydomonas reinhardtii; conditions: flurochloridone addition; liquid medium, one week, daily counts under the microscope; mixed culture 10:1
From the text: (§1) FIGS. 8A and B: Contamination test of Chlamydomonas pds transformant II5 versus the cyanobacterium Synechococcus PCC 7942. Chlamydomonas transformants and the cyanobacterium Synechococcus PCC7942 were inoculated alone and in mixed culture in a ratio of 10:1 with and without flurochloridone. Aliquots were removed daily and counted under the microscope. 8A represents the Chlamydomonas pds transformants counts and 8B represents the cyanobacterium Synechococcus PCC7942 counts.
(§2) To address the question of contaminants, the Chlamydomonas pds transformants were mixed with the cyanobacterium Synechococcus PCC7942, which is known to overtake ponds. A Chlamydomonas pds transformant and the cyanobacterium Synechococcus PCC7942 were inoculated alone and in mixed cultures with and without flurochloridone. The mixed culture was inoculated in a ratio of 10:1 Chlamydomonas pds transformants: Synechococcus PCC7942 wild type, respectively. The cells were allowed to grow for one week in liquid medium, with daily removal of aliquots. Contaminants versus target Chlamydomonas-cells were counted under the microscope (FIG. 8).

[2] = system: resistant pds transformed algae; test: Slow released herbicide embedded in photobioreactor lining: resistant transformed algae; type: cell-based; conditions: herbicide on inner side of photobioreactor, final concentration 10^−5 to 10^−7M if fully released
From the text: (§3) A hydrophobic herbicide/biocide such as flurochloridone or fluridone and/or butafenacil flumioxazin is/are applied using a volatile organic solvent such as xylene on the inner side of the polyethylene algae photobioreactor or pond liner, such that if it were fully released into the subsequent growth medium the concentration would reach a final concentration of 10^−5 to 10^−7M. Transgenically resistant algae or cyanobacteria versus wild-type are inoculated in the treated photobioreactors after the solvent has evaporated. In commercial production, the herbicides can be added during production of the polyethyelene.
(§4) Culture aliquots are removed daily and cell densities of wild types and the transformed algae or cyanobacteria are compared.

wild type culture = test: Slow released herbicide embedded in photobioreactor lining: wild type culture; type: cell-based; conditions: herbicide on inner side of photobioreactor, final concentration 10^−5 to 10^−7M if fully released
From the text: as §3, §4

Synechococcus PCC7942 = test: Contamination test: Synechococcus PCC7942 alone and in mixed culture, with and without flurochloridone; type: cell-based; conditions: flurochloridone addition; liquid medium, one week, daily counts under the microscope; mixed culture 10:1
From the text: as §1, §2

[3] = system: wild type algae and the cyanobacteria; test: Effect of microtubule-inhibiting herbicides on wild type algae and cyanobacteria
Protocol: (§5) To quantify CO2 effects on plankton survivorship we incubate 81 L vessels of the algae Pavlova lutheri, Isochrysis CS-177, Nannochloropsis oculata CS-179, Nannochloropsis like CS-246, Nannochloropsis salina CS-190, Tetraselmis suecica, Tetraselmis chuii and Nannochloris sp or cyanobacteria Synechococcus PCC7002, Synechococcus WH-7803, Thermosynechococcus elongatus BP-1 with or without zooplankton (e.g. Arthemia sp.). The control and zooplankton treated containers are bubbled with air, 1%, 5% and 14% CO2 together with specific herbicides that are applied at the appropriate concentrations. Algal cell density and zooplankton counts are done on each treatment over a 10 day period. Throughout the experiment pH is maintained at 7.0-8.0, which allows phytoplankton growth.

[4] = system: zooplankton (e.g. Arthemia sp.); test: Zooplankton survivorship under CO2 and herbicide treatment; type: in vivo; conditions: microtubule-inhibiting herbicides
Protocol: as §5

[5] = system: Nannochloropsis cells transformed with pSI103-PDS; test: Cross resistance of Nannochloropsis cells transformed with pSI103-PDS; type: cell-based, Nannochloropsis oculata; conditions: Nannochloropsis transformants selected on ASW + 1 μM flurochloridone
Protocol: FIG. 3. Nannochloropsis cells were transformed with the pSI103-PDS construct (right panel) as well as control cells which were not transformed with DNA (left panel) plated on artificial sea water (ASW)+1 μM flurochloridone.
Nannochloropsis oculata CS179 cells were transformed with the PSI103-PDS construct using the ECM 830 electroporator (BTX Instrument Division, Harvard Apparatus, Inc., Holliston, Mass., USA) as described above. After transformation algae were plated on ASW+F/2 media (http://www.marine.csiro.au/microalgae/methods/) containing 10^−7M flurochloridone. After two weeks, algal colonies both from the transformation and the mock were replated on ASW+10^−6M flurochloridone plates. This allowed differentiation between false positives and true resistant clones (FIG. 3). This material was used in Example 4.

Hydrilla verticillata = conditions: cited from earlier work
[6] = system: Synechococcus PCC7002 and Synechococcus WH7803; test: Mixed culture of ppo transformed algae and cyanobacteria contaminants, with and without herbicide; type: cell-based; conditions: mixed culture 10:1 transformant:cyanobacteria, one week liquid culture
Protocol: To address the question of contaminants, the transformed algae are mixed with cyanobacteria such as Synechococcus PCC7002 and Synechococcus WH7803, which are known to overtake ponds. The transformant and the cyanobacteria are cultured alone and in mixed cultures with and without butafenacil or flumioxazin. The mixed culture is plated in a ratio of 10:1 transformant: cyanobacteria respectively. The cells are allowed to grow for one week in liquid culture, with daily removal of aliquots. These aliquots are counted under the microscope and the ratio of contaminants vs. algae is calculated.

wild-type algae = test: Butafenacil dose response on wild type algae and cyanobacteria (FIG. 11); type: cell-based; conditions: 10^−6M or 10^−7M
Protocol: FIG. 11 A Chemical structure of butafenacil. B. Butafenacil dose response on wild type algae and cyanobacteria. Strains were cultured at OD648=0.1 in 24 well plate and butafencil was applied at concentrations of 10^−5,6,7M. After a week OD648 of the cultures was measured.
Cells are allowed to generate to visible colonies. After incubation for a week the most resistant colonies are chosen. To ascertain gene transformation PCR analysis is preformed on wild type and butafenacil or flumioxazin resistant colonies.

ppo transformant algae = test: Dose response of ppo transformants versus wild type alga; type: cell-based; conditions: 0.1 μM, 0.3 μM, 0.5 μM in 24 well plates
Protocol: A dose response curve is generated for the wild type alga and for the transformants. The wild types and the transformant algae are plated in their medium in 24 well plates with increasing concentrations of 0.1 μM, 0.3 μM, 0.5 μM butafenacil or flumioxazin. Algae are plated without the herbicide as a control. […] The most resistant colonies are chosen for further analysis.

Compound: O=C1C(Cl)C(CCl)CN1c1cccc(C(F)(F)F)c1 (stereo not shown) [flurochloridone]
- growth of the resistant pds Chlamydomonas cells [1]: unaffected
- growth of the resistant pds transformed algae [2]: unaffected
- growth of the wild type culture (wild type culture): completely inhibited
- growth of Synechococcus PCC7942 cells (Synechococcus PCC7942): completely inhibited

Compound: COC(=O)c1c(C(F)F)nc(C(F)(F)F)c(C2=NCCS2)c1CC(C)C [thiazopyr]
- effect on wild type algae and cyanobacteria [3]: do not harm
- effect on zooplankton [4]: killed

Compound: fluridone
- growth of the resistant pds transformed algae [2]: unaffected
- cross resistance of the flurochloridone resistant material [5]: cross resistant
- growth of the wild type culture (wild type culture): completely inhibited
- biomass accumulation, of the content in untreated plants (Hydrilla verticillata; fluridone resistant biotypes): up to 72%
- β-carotene accumulation, of the content in untreated plants (Hydrilla verticillata; fluridone resistant biotypes): ≤ 77%
- biomass accumulation, of the levels found in untreated plants (Hydrilla verticillata; susceptible population): 10%
- β-carotene accumulation, of the levels found in untreated plants (Hydrilla verticillata; susceptible population): 10%

Compound: O=C(Nc1ccc(F)cc1)c1cccc(Oc2cccc(C(F)(F)F)c2)n1 [picolinafen]
- cross resistance of the flurochloridone resistant material [5]: cross resistant

Compound: CCC(CC)Nc1c([N+](=O)[O-])cc(C)c(C)c1[N+](=O)[O-] [pendimethalin]
- effect on wild type algae and cyanobacteria [3]: do not harm
- effect on zooplankton [4]: killed

Compound: CC(C)N(Cc1ccccc1)C(=O)C(C)(C)C [tebutam]
- effect on wild type algae and cyanobacteria [3]: do not harm
- effect on zooplankton [4]: killed

Compound: C#CCN1C(=O)COc2cc(F)c(N3C(=O)C4=C(CCCC4)C3=O)cc21 [flumioxazin]
- growth of the resistant pds transformed algae [2]: unaffected
- contaminants in mixed cultures containing the herbicide [6]: decreasing numbers of contaminants
- wild-type algae growth (wild-type algae): inhibit
- growth of the wild type culture (wild type culture): completely inhibited
- growth of transformants bearing the resistance gene in dose response (ppo transformant algae): ability to grow at higher concentrations than the wild type

Compound: C#CC(C)(C)NC(=O)c1cc(Cl)cc(Cl)c1 [propyzamide]
- effect on wild type algae and cyanobacteria [3]: do not harm
- effect on zooplankton [4]: killed

Compound: CCCCN(CC)c1c([N+](=O)[O-])cc(C(F)(F)F)cc1[N+](=O)[O-] [benefin]
- effect on wild type algae and cyanobacteria [3]: do not harm
- effect on zooplankton [4]: killed

Compound: CCC(C)Nc1c([N+](=O)[O-])cc(C(C)(C)C)cc1[N+](=O)[O-] (stereo not shown) [butralin]
- effect on wild type algae and cyanobacteria [3]: do not harm
- effect on zooplankton [4]: killed

Compound: CCCN(CCC)c1c([N+](=O)[O-])cc(C(F)(F)F)cc1[N+](=O)[O-] [trifluralin]
- effect on wild type algae and cyanobacteria [3]: do not harm
- effect on zooplankton [4]: killed

Compound: C=C(C)CN(CC)c1c([N+](=O)[O-])cc(C(F)(F)F)cc1[N+](=O)[O-] [ethalfluralin]
- effect on wild type algae and cyanobacteria [3]: do not harm
- effect on zooplankton [4]: killed

Compound: COP(=S)(NC(C)C)Oc1ccc(C)cc1[N+](=O)[O-] (stereo not shown) [amiprophos-methyl]
- effect on wild type algae and cyanobacteria [3]: do not harm
- effect on zooplankton [4]: killed

Compound: COC(=O)c1c(Cl)c(Cl)c(C(=O)OC)c(Cl)c1Cl [chlorthal-dimethyl]
- effect on wild type algae and cyanobacteria [3]: do not harm
- effect on zooplankton [4]: killed

Compound: CCOP(=S)(NC(C)CC)Oc1cc(C)ccc1[N+](=O)[O-] (stereo not shown) [butamiphos]
- effect on wild type algae and cyanobacteria [3]: do not harm
- effect on zooplankton [4]: killed

Compound: C=CCOC(=O)C(C)(C)OC(=O)c1cc(-n2c(=O)cc(C(F)(F)F)n(C)c2=O)ccc1Cl [butafenacil]
- growth of the resistant pds transformed algae [2]: unaffected
- contaminants in mixed cultures containing the herbicide [6]: decreasing numbers of contaminants
- wild-type algae growth (wild-type algae): inhibit
- growth of the wild type culture (wild type culture): completely inhibited
- growth of transformants bearing the resistance gene in dose response (ppo transformant algae): ability to grow at higher concentrations than the wild type

Compound: CCN(CC)c1c([N+](=O)[O-])cc(C(F)(F)F)c(N)c1[N+](=O)[O-] [dinitramine]
- effect on wild type algae and cyanobacteria [3]: do not harm
- effect on zooplankton [4]: killed

Compound: CSC(=O)c1c(C(F)F)nc(C(F)(F)F)c(C(=O)SC)c1CC(C)C [dithiopyr]
- effect on wild type algae and cyanobacteria [3]: do not harm
- effect on zooplankton [4]: killed

Compound: CNc1cnn(-c2cccc(C(F)(F)F)c2)c(=O)c1Cl [norflurazon]
- cross resistance of the flurochloridone resistant material [5]: cross resistant
